≈ marks a conversion by molar mass, not a printed value.
Columns and labels:
Assay type in all cases: cell-based
Microsporum gypseum = assay: Antifungal activity, agar dilution method; settings: potato agar, pH 6.4, 27° C., 4 days
Experimental: (§1) Minimal inhibitory concentration is assayed by agar dilution method
(§2) (potato agar, pH 6.4, 27° C., 4 days)

Aspergillus fumigatus = assay: Antifungal activity, agar dilution method; settings: potato agar, pH 6.4, 27° C., 4 days
Experimental: as §1, §2

[1] = tested on: Trichophyton interdigitale; assay: Antifungal activity, agar dilution method; settings: potato agar, pH 6.4, 27° C., 4 days
Experimental: as §1, §2

Candida albicans = assay: Antifungal activity, agar dilution method; settings: potato agar, pH 6.4, 27° C., 4 days
Experimental: as §1, §2

Aspergillus niger = assay: Antifungal activity, agar dilution method; settings: potato agar, pH 6.4, 27° C., 4 days
Experimental: as §1, §2

Trichophyton ferrugineum = assay: Antifungal activity, agar dilution method; settings: potato agar, pH 6.4, 27° C., 4 days
Experimental: as §1, §2

Trichophyton violaceum = assay: Antifungal activity, agar dilution method; settings: potato agar, pH 6.4, 27° C., 4 days
Experimental: as §1, §2

Trichophyton asteroides = assay: Antifungal activity, agar dilution method; settings: potato agar, pH 6.4, 27° C., 4 days
Experimental: as §1, §2

Trichophyton rubrum = assay: Antifungal activity, agar dilution method; settings: potato agar, pH 6.4, 27° C., 4 days
Experimental: as §1, §2

Saccharomyces sake = assay: Antifungal activity, agar dilution method; settings: potato agar, pH 6.4, 27° C., 4 days
Experimental: as §1, §2

Trichophyton schoenleini = assay: Antifungal activity, agar dilution method; settings: potato agar, pH 6.4, 27° C., 4 days
Experimental: as §1, §2

mycoplasma = assay: Antimycoplasma activity, paper disc method; settings: Eiken PPLO agar, pH 7.8, 37° C., 1 day
Experimental: Inhibitory zone is assayed by paper disc method (Eiken PPLO agar, pH 7.8,

[2] = Trichophyton, 96 h, read-out: Minimal Inhibitory Con.

Compound: CCC[C@H]1O[C@H](CC(=O)O)CC2=C1C(=O)c1c(O)cccc1C2=O [Deoxyfrenolicin, deoxyfrenolicin]
- MIC (Microsporum gypseum; Nannizzia gypsea, 96 h, read-out: Minimal Inhibitory Con.): < 0.2 µg/mL
- MIC (Aspergillus fumigatus; Aspergillus fumigatus, 96 h, read-out: Minimal Inhibitory Con.): 6.3 µg/mL (≈ 19.1 µM)
- MIC ([1]; Trichophyton interdigitale, 96 h, read-out: Minimal Inhibitory Con.): 0.4 µg/mL (≈ 1.21 µM)
- MIC (Candida albicans; Candida albicans, 96 h, read-out: Minimal Inhibitory Con.): 50 µg/mL (≈ 151 µM)
- MIC (Aspergillus niger; Aspergillus niger, 96 h, read-out: Minimal Inhibitory Con.): > 100 µg/mL
- MIC (Trichophyton ferrugineum; Microsporum ferrugineum, 96 h, read-out: Minimal Inhibitory Con.): 3.1 µg/mL (≈ 9.38 µM)
- MIC (Trichophyton violaceum; Trichophyton violaceum, 96 h, read-out: Minimal Inhibitory Con.): 0.8 µg/mL (≈ 2.42 µM)
- MIC (Trichophyton asteroides; [2]): < 0.2 µg/mL
- MIC (Trichophyton rubrum; Trichophyton rubrum, 96 h, read-out: Minimal Inhibitory Con.): < 0.2 µg/mL
- MIC (Saccharomyces sake; Saccharomyces, 96 h, read-out: Minimal Inhibitory Con.): 6.3 µg/mL (≈ 19.1 µM)
- MIC (Trichophyton schoenleini; [2]): < 0.2 µg/mL
- zone of inhibition at 10 µg/mL (mycoplasma; Mycoplasma, 24 h, 10 μg/ml, read-out: Inhibitory Zone): 14.6 mm
- zone of inhibition at 100 µg/mL (mycoplasma; Mycoplasma, 24 h, 100 μg/ml, read-out: Inhibitory Zone): 21.8 mm

Compound: ethylkalafunginate
- Minimal Inhibitory Con. (Microsporum gypseum): > 100 µg/mL
- Minimal Inhibitory Con. (Aspergillus fumigatus): > 100 µg/mL
- Minimal Inhibitory Con. [1]: > 100 µg/mL
- Minimal Inhibitory Con. (Candida albicans): > 100 µg/mL
- Minimal Inhibitory Con. (Aspergillus niger): > 100 µg/mL
- Minimal Inhibitory Con. (Trichophyton ferrugineum): > 100 µg/mL
- Minimal Inhibitory Con. (Trichophyton violaceum): > 100 µg/mL
- Minimal Inhibitory Con. (Trichophyton asteroides): > 100 µg/mL
- Minimal Inhibitory Con. (Trichophyton rubrum): > 100 µg/mL
- Minimal Inhibitory Con. (Saccharomyces sake): > 100 µg/mL
- Minimal Inhibitory Con. (Trichophyton schoenleini): > 100 µg/mL
- Inhibitory Zone (mycoplasma; 10 μg/ml): none
- Inhibitory Zone (mycoplasma; 100 μg/ml): none

Source: patent publication US4308210A, “Nanaomycin B and therapeutic compositions containing same” (The Kitasato Institute, priority 1976, dated 1981)
